Columns and labels:
Or13a = biological target: T1, Or13a (Drosophila melanogaster, UniProt Q9VXL0); assay: GCaMP6s calcium imaging in Sf21 cells co-expressing Or13a and Orco, dose-response; type: cell-based
T1 construct: wild-type Or13a stably expressed in Sf21 cells (clone Or13a-WT-C4); with Orco
T1 sequence (Q9VXL0 1-418): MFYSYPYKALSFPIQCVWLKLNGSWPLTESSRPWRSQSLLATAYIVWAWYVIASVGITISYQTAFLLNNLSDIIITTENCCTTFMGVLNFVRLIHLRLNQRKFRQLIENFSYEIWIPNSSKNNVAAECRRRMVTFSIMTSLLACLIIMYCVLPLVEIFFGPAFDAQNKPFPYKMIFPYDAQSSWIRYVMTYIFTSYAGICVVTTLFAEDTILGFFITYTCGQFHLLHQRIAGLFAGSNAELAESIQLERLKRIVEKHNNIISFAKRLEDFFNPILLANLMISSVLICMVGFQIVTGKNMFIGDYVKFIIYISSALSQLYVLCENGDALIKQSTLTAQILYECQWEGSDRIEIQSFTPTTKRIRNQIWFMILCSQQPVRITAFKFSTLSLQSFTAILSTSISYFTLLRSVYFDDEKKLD
T1 sequence (Q9VNB5 1-486 partner): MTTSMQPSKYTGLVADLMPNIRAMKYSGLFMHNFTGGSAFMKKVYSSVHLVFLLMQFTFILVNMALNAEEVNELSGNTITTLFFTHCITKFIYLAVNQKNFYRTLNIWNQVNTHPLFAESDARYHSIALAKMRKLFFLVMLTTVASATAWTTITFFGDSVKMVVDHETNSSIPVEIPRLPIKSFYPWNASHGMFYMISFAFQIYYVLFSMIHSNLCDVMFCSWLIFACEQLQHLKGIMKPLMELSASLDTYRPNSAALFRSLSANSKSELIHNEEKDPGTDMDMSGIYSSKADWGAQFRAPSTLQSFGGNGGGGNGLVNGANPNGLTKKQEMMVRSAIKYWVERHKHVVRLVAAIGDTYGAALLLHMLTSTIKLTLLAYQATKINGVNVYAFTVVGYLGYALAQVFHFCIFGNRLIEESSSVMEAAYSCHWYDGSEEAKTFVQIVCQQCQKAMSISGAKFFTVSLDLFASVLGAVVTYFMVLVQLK

Or56a = biological target: T2, Or56a (Drosophila melanogaster, UniProt Q9V8Y7); assay: GCaMP6s calcium imaging in Sf21 cells co-expressing Or56a and Orco, dose-response; type: cell-based
T2 construct: with Orco
T2 sequence (Q9V8Y7 whole entry, one chain of several): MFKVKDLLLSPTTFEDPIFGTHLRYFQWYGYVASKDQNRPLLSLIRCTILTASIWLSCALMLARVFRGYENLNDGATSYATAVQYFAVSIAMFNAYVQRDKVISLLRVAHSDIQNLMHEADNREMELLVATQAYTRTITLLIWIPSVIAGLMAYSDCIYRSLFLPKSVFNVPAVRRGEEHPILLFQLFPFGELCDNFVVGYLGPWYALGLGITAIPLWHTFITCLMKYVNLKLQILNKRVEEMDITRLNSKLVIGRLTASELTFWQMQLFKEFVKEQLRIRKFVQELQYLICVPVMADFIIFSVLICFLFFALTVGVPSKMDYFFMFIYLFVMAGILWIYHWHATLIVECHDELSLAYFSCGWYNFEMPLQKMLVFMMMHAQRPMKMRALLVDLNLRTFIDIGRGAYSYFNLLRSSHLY

An EC50 (Or13a) of 3500 nM was found for `C=CC(O)CCCCC` (centres unmarked) [1-octen-3-ol] in this work.
An EC50 (Or56a) of 630 nM was found for `CC1CCCC2(C)CCCCC12O` (stereo not drawn) [geosmin, trans-1,10-dimethyl-trans-9-decalol] in this work.
